Paper PMC6366710, “The structural basis of unique substrate recognition by Plasmodium thymidylate kinase: Molecular dynamics simulation and inhibitory studies” (PLoS ONE, 2019)

Molecular target: T1, PfTMK (Plasmodium falciparum thymidylate kinase) (Plasmodium falciparum, UniProt Q8I4S1)
T1 construct: gene TMK; natural dimer
T1 sequence (Q8I4S1 1-210): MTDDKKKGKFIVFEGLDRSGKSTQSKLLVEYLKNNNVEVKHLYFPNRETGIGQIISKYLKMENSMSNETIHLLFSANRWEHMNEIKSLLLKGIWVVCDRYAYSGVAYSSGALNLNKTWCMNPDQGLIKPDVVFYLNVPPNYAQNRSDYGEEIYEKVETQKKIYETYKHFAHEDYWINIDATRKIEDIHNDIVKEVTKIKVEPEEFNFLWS
Assay: NADH-coupled (pyruvate kinase/lactate dehydrogenase) spectrophotometric TMP kinase assay, initial rates
Type: biochemical
Text: NADH-coupled (pyruvate kinase/lactate dehydrogenase) spectrophotometric TMP kinase assay, initial rates on PfTMK (Plasmodium falciparum thymidylate kinase)

| SMILES | Ki |
| --- | --- |
| Nc1nc2c(nc(O)n2[C@H]2C[C@H](O)[C@@H](CO)O2)c(=O)[nH]1 [8-Hydroxy-2'-deoxyguanosine] | 180 µM |
| Nc1ncn([C@H]2C[C@H](OP(=O)(O)OC[C@H]3O[C@@H](n4cnc5c(=O)[nH]c(N)nc54)C[C@@H]3O)[C@@H](CO)O2)c(=O)n1 [Guadecitabine] | 90 µM |
| Nc1nc2c(ncn2[C@@H]2O[C@H](COP(=O)(O)OP(=O)(O)O[C@H]3O[C@H](CO)[C@@H](O)[C@H](O)[C@@H]3O)[C@@H](O)[C@H]2O)c(=O)[nH]1 [Guanosine diphosphate mannose] | > 1000 µM |
| Nc1nc2c(ncn2[C@H]2C[C@H](O)[C@@H](CO)O2)c(=O)[nH]1 [deoxyguanosine] | 270 µM |
